Test results from ChEMBL document CHEMBL1156062, “Synthesis, SAR, and X-ray structure of tricyclic compounds as potent FBPase inhibitors” (Bioorg Med Chem Lett, 2009).
pIC50: −log10 of the molar value.

Molecular target: T1, Fructose-1,6-bisphosphatase 1 (Homo sapiens, UniProt P09467)
T1 sequence (P09467 whole entry): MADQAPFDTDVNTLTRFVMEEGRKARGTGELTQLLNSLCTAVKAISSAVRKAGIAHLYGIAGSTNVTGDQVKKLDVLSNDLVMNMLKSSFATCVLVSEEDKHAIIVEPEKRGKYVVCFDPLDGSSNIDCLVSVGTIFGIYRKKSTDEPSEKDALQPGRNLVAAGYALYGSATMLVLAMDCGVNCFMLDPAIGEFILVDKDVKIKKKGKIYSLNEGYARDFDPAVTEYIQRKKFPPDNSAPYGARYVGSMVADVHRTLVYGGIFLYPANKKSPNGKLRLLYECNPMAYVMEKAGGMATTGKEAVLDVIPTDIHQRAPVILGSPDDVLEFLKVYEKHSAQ
Assay: Inhibition of human liver FBPase

SMILES	pIC50
Nc1nc2c(s1)CCc1ccc(C(F)(F)P(=O)(O)O)cc1-2	7.33
Nc1nc2c(s1)CCc1cc(OP(=O)(O)O)ccc1-2	3.95
Nc1nc2c(s1)Cc1ccc(OP(=O)(O)O)cc1-2	3.51
Nc1nc2c(s1)Cc1ccc(P(=O)(O)O)cc1-2	4.73
Nc1nc2c(s1)CCCc1ccc(P(=O)(O)O)cc1-2	6.77
Nc1nc2c(s1)CCCc1ccc(OP(=O)(O)O)cc1-2	7.66
Nc1nc2c(s1)Cc1cc(P(=O)(O)O)ccc1-2	4.04
Nc1nc2c(s1)Cc1cc(OCP(=O)(O)O)ccc1-2	3.95
Nc1nc2c(s1)Cc1cc(OP(=O)(O)O)ccc1-2	3.84

Results, then the compound that gave them:

pIC50	SMILES
3.47	Nc1nc2c(s1)CCc1cccc(OP(=O)(O)O)c1-2
4.72	Nc1nc2c(s1)CCc1ccc(OCP(=O)(O)O)cc1-2
4.38	Nc1nc2c(s1)CCCc1ccc(OCP(=O)(O)O)cc1-2
5.03	Nc1nc2c(s1)CCc1ccc(P(=O)(O)O)cc1-2
4.79	Nc1nc2c(s1)CCc1cc(OCP(=O)(O)O)ccc1-2
3.45	Nc1nc2c(s1)CCc1cccc(P(=O)(O)O)c1-2
3.45	Nc1nc2c(s1)CCc1cc(P(=O)(O)O)ccc1-2
4.67	Nc1nc2c(s1)CCc1cccc(OCP(=O)(O)O)c1-2
4.55	Nc1nc2c(s1)Cc1cccc(P(=O)(O)O)c1-2
3.95	Nc1nc2c(s1)Cc1ccc(OCP(=O)(O)O)cc1-2
6.08	Nc1nc2c(s1)CCc1ccc(CP(=O)(O)O)cc1-2
7.15	Nc1nc2c(s1)Cc1cccc(OP(=O)(O)O)c1-2
